This is an account of results in ChEMBL document CHEMBL5537135, “Novel antimicrobial peptides modified with fluorinated sulfono-γ-AA having high stability and targeting multidrug-resistant bacteria infections” (Eur J Med Chem, 2024).

As usually defined, the MIC is the smallest concentration in the dilution series that meets the test's criterion for growth inhibition.

Calls of active or inactive are those of the source.

Data set [1] can be described thus: Toxicity in mouse assessed as sluggish behavior at 20 mg/kg, ip measured for 30 to 60 mins. Particulars: in vivo, time 30-60 min. In kind it is organism-based.
For another data set, the system named is Escherichia coli. The experiment in a line: Antimicrobial activity against Escherichia coli ATCC 25922 assessed as inhibition of visible bacterial growth incubated for 18 hrs by broth-dilution method. The class given is functional.
The test system of data set [2] is Pseudomonas aeruginosa. As to the kind of experiment: Antimicrobial activity against Pseudomonas aeruginosa ATCC 27853 assessed as inhibition of visible bacterial growth incubated for 18 hrs by broth-dilution method. The class given is functional.
Another data set relates to Acinetobacter baumannii. The experiment in a line: Antimicrobial activity against Acinetobacter baumannii ATCC 19606 assessed as inhibition of visible bacterial growth incubated for 18 hrs by broth-dilution method. The class given is functional.
The next data set relates to Salmonella typhimurium. As to the kind of experiment: Antimicrobial activity against Salmonella typhimurium ATCC 14028 assessed as inhibition of visible bacterial growth incubated for 18 hrs by broth-dilution method. In kind it is functional. Particulars: Salmonella enterica subsp. enterica serovar Typhimurium.
In data set [3] the test system is Staphylococcus aureus. The experiment in a line: Antimicrobial activity against Staphylococcus aureus ATCC 25923 assessed as inhibition of visible bacterial growth incubated for 18 hrs by broth-dilution method. In kind it is functional.
In data set [4] the test system is Staphylococcus epidermidis. The experiment in a line: Antimicrobial activity against Staphylococcus epidermidis ATCC 12228 assessed as inhibition of visible bacterial growth incubated for 18 hrs by broth-dilution method. The class given is functional.
The subject of the next data set is Bacillus subtilis. The experiment in a line: Antimicrobial activity against Bacillus subtilis ATCC 23857 assessed as inhibition of visible bacterial growth incubated for 18 hrs by broth-dilution method. In kind it is functional.
The subject of data set [5] is Staphylococcus aureus. As to the kind of experiment: Antimicrobial activity against methicillin-resistant Staphylococcus aureus ATCC 33591 assessed as inhibition of visible bacterial growth incubated for 18 hrs by broth-dilution method. The class given is functional.
For data set [6], the system named is Pseudomonas aeruginosa. The experiment in a line: Antimicrobial activity against multidrug-resistant Pseudomonas aeruginosa 050 assessed as inhibition of visible bacterial growth incubated for 18 hrs by broth-dilution method. In kind it is functional.
Data set [7] relates to Pseudomonas aeruginosa. As to the kind of experiment: Antimicrobial activity against multidrug-resistant Pseudomonas aeruginosa 061 assessed as inhibition of visible bacterial growth incubated for 18 hrs by broth-dilution method. In kind it is functional.
Data set [8] has as its system Pseudomonas aeruginosa. The experiment in a line: Antimicrobial activity against multidrug-resistant Pseudomonas aeruginosa 073 assessed as inhibition of visible bacterial growth incubated for 18 hrs by broth-dilution method. The class given is functional.
The test system of data set [9] is Pseudomonas aeruginosa. The experiment in a line: Antimicrobial activity against multidrug-resistant Pseudomonas aeruginosa 085 assessed as inhibition of visible bacterial growth incubated for 18 hrs by broth-dilution method. The class given is functional.
Data set [10] deals with Pseudomonas aeruginosa. The experiment in a line: Antimicrobial activity against multidrug-resistant Pseudomonas aeruginosa 119 assessed as inhibition of visible bacterial growth incubated for 18 hrs by broth-dilution method. The class given is functional.
Data set [11] relates to Pseudomonas aeruginosa. The experiment in a line: Antimicrobial activity against multidrug-resistant Pseudomonas aeruginosa 124 assessed as inhibition of visible bacterial growth incubated for 18 hrs by broth-dilution method. In kind it is functional.
The test system of data set [12] is Pseudomonas aeruginosa. The experiment in a line: Antimicrobial activity against multidrug-resistant Pseudomonas aeruginosa 125 assessed as inhibition of visible bacterial growth incubated for 18 hrs by broth-dilution method. The class given is functional.
Data set [13] has as its system Pseudomonas aeruginosa. The experiment in a line: Antimicrobial activity against multidrug-resistant Pseudomonas aeruginosa 156 assessed as inhibition of visible bacterial growth incubated for 18 hrs by broth-dilution method. In kind it is functional.
Data set [14] has as its system Pseudomonas aeruginosa. As to the kind of experiment: Antimicrobial activity against multidrug-resistant Pseudomonas aeruginosa 157 assessed as inhibition of visible bacterial growth incubated for 18 hrs by broth-dilution method. The class given is functional.
Data set [15] deals with Pseudomonas aeruginosa. As to the kind of experiment: Antimicrobial activity against multidrug-resistant Pseudomonas aeruginosa 516 assessed as inhibition of visible bacterial growth incubated for 18 hrs by broth-dilution method. The class given is functional.
Data set [16] has as its system Staphylococcus aureus. As to the kind of experiment: Antimicrobial activity against methicillin-resistant Staphylococcus aureus 1 assessed as inhibition of visible bacterial growth incubated for 18 hrs by broth-dilution method. In kind it is functional.
Data set [17] concerns Staphylococcus aureus. The experiment in a line: Antimicrobial activity against methicillin-resistant Staphylococcus aureus 2 assessed as inhibition of visible bacterial growth incubated for 18 hrs by broth-dilution method. The class given is functional.
In data set [18] the test system is Staphylococcus aureus. As to the kind of experiment: Antimicrobial activity against methicillin-resistant Staphylococcus aureus 3 assessed as inhibition of visible bacterial growth incubated for 18 hrs by broth-dilution method. The class given is functional.
In data set [19] the test system is Staphylococcus aureus. As to the kind of experiment: Antimicrobial activity against methicillin-resistant Staphylococcus aureus 4 assessed as inhibition of visible bacterial growth incubated for 18 hrs by broth-dilution method. In kind it is functional.
Data set [20] deals with Staphylococcus aureus. As to the kind of experiment: Antimicrobial activity against methicillin-resistant Staphylococcus aureus 5 assessed as inhibition of visible bacterial growth incubated for 18 hrs by broth-dilution method. The class given is functional.
The test system of data set [21] is Staphylococcus aureus. As to the kind of experiment: Antimicrobial activity against methicillin-resistant Staphylococcus aureus 6 assessed as inhibition of visible bacterial growth incubated for 18 hrs by broth-dilution method. The class given is functional.
For data set [22], the system named is Staphylococcus aureus. The experiment in a line: Antimicrobial activity against methicillin-resistant Staphylococcus aureus 7 assessed as inhibition of visible bacterial growth incubated for 18 hrs by broth-dilution method. In kind it is functional.
Data set [23] concerns Staphylococcus aureus. The experiment in a line: Antimicrobial activity against methicillin-resistant Staphylococcus aureus 8 assessed as inhibition of visible bacterial growth incubated for 18 hrs by broth-dilution method. The class given is functional.
For data set [24], the system named is Staphylococcus aureus. The experiment in a line: Antimicrobial activity against methicillin-resistant Staphylococcus aureus 9 assessed as inhibition of visible bacterial growth incubated for 18 hrs by broth-dilution method. In kind it is functional.
Data set [25] relates to Staphylococcus aureus. As to the kind of experiment: Antimicrobial activity against methicillin-resistant Staphylococcus aureus 10 assessed as inhibition of visible bacterial growth incubated for 18 hrs by broth-dilution method. In kind it is functional.
The test system of data set [26] is Pseudomonas aeruginosa. As to the kind of experiment: Bactericidal activity against Pseudomonas aeruginosa ATCC 27853 assessed as reduction in viable bacteria at 4 times MIC measured for 30 min by time-kill assay. The class given is functional, organism-based.
The subject of data set [27] is Staphylococcus aureus. The experiment in a line: Drug resistance, ratio of MIC for methicillin-resistant Staphylococcus aureus ATCC 33591 after 20 days exposure to MIC for methicillin-resistant Staphylococcus aureus ATCC 33591 during first exposure. In kind it is functional, organism-based. Particulars: time 20.0 day.
Data set [28] deals with Cell membrane. As to the kind of experiment: Induction of cytoplasmic membrane depolarization in methicillin-resistant Staphylococcus aureus ATCC 33591 assessed as increase in fluorescence intensity at 4 times MIC by DiSC35 dye-based fluorescence assay.
Data set [29] relates to Cell membrane. The experiment in a line: Induction of membrane depolarization in Pseudomonas aeruginosa ATCC 27853 assessed as increase in fluorescence intensity at 4 times MIC by DiSC35 dye-based fluorescence assay. In kind it is cell membranes.
Data set [30] deals with Pseudomonas aeruginosa. As to the kind of experiment: Antibacterial activity against Pseudomonas aeruginosa ATCC 27853 infected in C57BL/6 mouse pneumonia model assessed as log reduction in bacterial load in lung at 5 mg/kg, ip administered for 1 to 48 hrs and measured after 3 days. The following applies: time 1-120 hrs. In kind it is functional.
For data set [31], the system named is Pseudomonas aeruginosa. As to the kind of experiment: Antibacterial activity against Pseudomonas aeruginosa ATCC 27853 infected in C57BL/6 mouse pneumonia model assessed as […] at 5 mg/kg, ip administered for 1 to 48 hrs and measured after 3 days by H and E staining based analysis. In kind it is functional, organism-based. Particulars: time 1-120 hrs.

As for POLYMYXIN B [listing 1 of 2 here], the Activity result in data set [1] is on record as “Toxic”.

Regarding POLYMYXIN B [listing 2 of 2 here], the MIC was 1 µg/mL with Escherichia coli; 1 µg/mL in the data set with Pseudomonas aeruginosa [2]; 4 µg/mL in the data set with Acinetobacter baumannii; 2 µg/mL in the data set on Salmonella typhimurium; 8 µg/mL in the data set with Staphylococcus aureus [3]; 8 µg/mL in data set [4]. For the same sequence, the MIC in the data set with Bacillus subtilis stood at 8 µg/mL; in the data set on Staphylococcus aureus [5], 16 µg/mL; in the data set with Pseudomonas aeruginosa [6] it was 1 µg/mL; with Pseudomonas aeruginosa [7], 1 µg/mL; in the data set on Pseudomonas aeruginosa [8], 1 µg/mL; with Pseudomonas aeruginosa [9] it was 1 µg/mL. Moreover, the MIC came to 1 µg/mL in the data set on Pseudomonas aeruginosa [10]; 1 µg/mL in the data set on Pseudomonas aeruginosa [11]; 1 µg/mL in the data set with Pseudomonas aeruginosa [12]; 256 µg/mL in the data set on Pseudomonas aeruginosa [13]; 1 µg/mL with Pseudomonas aeruginosa [14]; 1 µg/mL in the data set with Pseudomonas aeruginosa [15]. Moreover, the MIC with Staphylococcus aureus [16] was 8 µg/mL; in the data set with Staphylococcus aureus [17] it was 8 µg/mL; in the data set on Staphylococcus aureus [18], 8 µg/mL; in the data set on Staphylococcus aureus [19], 16 µg/mL; in the data set on Staphylococcus aureus [20] it was 16 µg/mL; with Staphylococcus aureus [21], 8 µg/mL. For the same sequence, the MIC with Staphylococcus aureus [22], in the data set on Staphylococcus aureus [23], with Staphylococcus aureus [24] and with Staphylococcus aureus [25] was 16 µg/mL in each case. For the same sequence, the result in the data set on Pseudomonas aeruginosa [26] was Active. Further, in the data set with Staphylococcus aureus [27], the Ratio was determined as 8. Also, the outcome with Cell membrane [28], in the data set on Cell membrane [29] and with Pseudomonas aeruginosa [31] was inactive. In addition, in the data set on Pseudomonas aeruginosa [30], the log(activity) turned out to be 4.54.
